Test results as given in patent US20250032580A1, “USE OF ADNF POLYPEPTIDES IN THERAPY” (RAMOT AT TEL-AVIV UNIVERSITY LTD., priority 2021, published 2025).

Columns and labels:
Format in all cases: cell-based, mouse
[1] = tested on: differentiated N1E-115 cells; assay: FRAP of mCherry-Tau (Tau-MT interaction)
Description: (§1) Cell culture—Mouse neuroblastoma NIE-115 cells were maintained in Dulbecco's modified Eagle's medium, 10% fetal bovine serum, 2 mM glutamine and 100 U ml—1 penicillin, […] ml—1 streptomycin (Biological Industries, Beit Haemek, Israel). The cells were incubated in 95% air/5% CO2 in a humidified incubator at 37° C.
(§2) Cell differentiation and co-transfection of overexpression plasmids—Cultured NIE-115 cells were plated on 35 mm dishes (81156, 60μ-Dish, Ibidi, Martinsried, Germany) at a concentration of 1.25×10^4 cells per dish and then were differentiated with reduced fetal bovine serum (2%) and DMSO (1.25%) containing medium for 5 days before transfection. 48 hrs before experiments N1E-115 cells were co-transfected with 1 μg EB3-RFP or mCherry-Tau (3R) plasmid with or without 2 μg of plasmids, coding to GFP conjugated to full-length human ADNP, or ADNP carried mutations. 1:3 ratios between total amount of transfected DNA and transfection reagent were used according to manufacture guidance (Lipofectamine2000, Thermo Fisher Scientific, Waltham, MA, USA) in all subsequent experiments.
Fluorescence recovery after photobleaching (FRAP)—Differentiated NIE-115 cells were transfected with mCherry-Tau with or without GFP-conjugated to full-length ADNP or mutated ADNP, and imaged 48 hrs after transfection. An ROI for photobleaching was drowned in the proximal cell branches. mCherry-Tau was bleached with a […], and fluorescence recovery was collected within wavelengths of 610-650 nm. 80 images were taken every 0.74 sec immediately after bleaching. After FRAP imaging all samples were also treated with NAP in final concentrations of 10^−12 M, and after 4 hrs time-lapse imaging was done again under the same conditions. FRAP imaging for assessment difference between NAP and SKIP (SEQ ID NO: 21) activity was performed after an hour of ZnCl2 treatment (400 μM final concentration; Sigma, Rehovot, Israel) with or without NAP/SKIP (10^−12 M final concentration). Fluorescence signals were quantified with Fiji, obtained data were normalized with easyFRAP [82, 83] and FRAP recovery curves were fitted by a one-phase exponential association function by GraphPad Prism6 (GraphPad Software, Inc., La Jolla, CA, USA) while samples with R^2<0.9 were excluded.
Next, the effect of full-length/truncated ADNP forms with or without NAP treatment on Tau-MT interaction was examined by fluorescence recovery after photobleaching (FRAP) (FIGS. 8A-C). FRAP was performed with mCherry-tagged Tau protein (FIG. 8A). […] Therefore, the immobile mCherry-Tau fraction reflects the rate of Tau association with MTs.

[2] = tested on: differentiated N1E-115 cells; assay: Live imaging of EB3 comet-like structures (MT dynamics); conditions: 10^−12 M, 4 hrs
Description: as §1, §2
Live Imaging—48 hrs after transfection, differentiated NIE-115 cells (expressing EB3-RFP with or without GFP-conjugated to full-length ADNP or mutated ADNP) were incubated at 37° C. with a 5% CO2/95% air mixture in a thermostatic chamber placed on the stage of a Leica TCS SP5 confocal microscope (objective 100× (PL Apo) oil immersion, NA 1.4). Time-lapse images were automatically captured 3 sec during 1 min, using the Leica LAS AF software. After imaging all samples were also treated with NAP (SEQ ID NO: 2) or SKIP (SEQ ID NO: 21) in final concentrations of 10^−12 M, and after 4 hrs time-lapse imaging was done again under the same conditions. Data was collected and analyzed by Imaris software.
To evaluate the effect of ADNP truncated proteins on MT dynamics time-lapse imaging of EB3 comet-like structures formed by RFP-tagged EB3 proteins that bind to MT plus-ends was performed. Two parameters of EB3 activity were used to assess MT dynamics—track length and track speed of EB3 comets, which reflect the length of freshly growing MTs and the speed of MT assembly, respectively. Furthermore, the present inventors aimed to determine whether NAP (10^−12 M for 4 hrs) could prevent the deleterious effect of ADNP mutations.

N1E-115 cells = assay: Polymerized vs. soluble tubulin assay; conditions: zinc 400 μM, 4 h, peptide 10^−12 M
Description: Polymerized vs. soluble tubulin assay—To quantify tubulin polymerization and Tau-MT association, a simple assay was performed as previously described. The cells grown to confluence in six-well plates were washed with MT buffer (80 mM PIPES pH 6.8, 1 mM MgCl^2, 2 mM EGTA, 5% Glycerol) and lysed at room temperature for 5 min through centrifugation (300 g), with 150 μl of MT buffer with 0.5% Triton X-100 to extract soluble (cytosolic) tubulin (S). The pelleted cells were rinsed once again with an equal volume of modified RIPA lysis buffer (50 mM Tris-HCL pH 7.4, 150 mM NaCl, 2 mM EGTA, 1% Triton X-100, 0.1% SDS, 0.1% sodium Deoxycholate) to collect the polymerized (cytoskeletal) tubulin (P). The cytosolic and cytoskeletal fractions were each mixed with sample buffer and heated at 95° C. for 5 min. An equal volume of each fraction was analyzed by immunoblotting with Tau, tubulin and actin antibodies, and the results following ECL development were quantified by densitometry (GelQuant.NET software provided by biochemlabsolutions(dot)com).
It is known that in the presence of extracellular zinc NAP protects MT against degradation by promoting Tau binding to the MT shaft. Polymerized vs. soluble tubulin assay was effected to compare protective activities of NAP and SKIP against MT degradation and Tau-MT dissociation (FIGS. 11F-G). After treatments with zinc (400 μM, 4 h) with and without NAP or SKIP (10^−12 M, 4 h) the cellular-tubulin pool was separated into polymerized and soluble tubulin fractions. The amount of Tau, tubulin, and actin was identified by immunoblotting (FIG. 11F), followed by densitometric quantification (FIG. 11G).

Row | Compound | Tau immobile fraction in comparison to non-treated control ([1]; 400 μM, 1 h) | Efficacy in terms of MT-Tau interactions, as compared with NAP ([1]; summary of results) | Tau immobile fraction under zinc ([1]; zinc 400 μM, 1 h, together with peptide 10^−12 M) | Difference between effects of NAP and SKIP on EB3 track length and speed [2] | EB3 track length and speed compared to non-treated control ([2]; no ADNP plasmid) | Protection against Tau dissociation from MTs (N1E-115 cells) | Protection of polymerized tubulin against zinc-induced decay (N1E-115 cells)
1 | [Cl-].[Cl-].[Zn+2] [zinc, ZnCl2, reference compound] | significantly attenuated |  |  |  |  |  | 
2 | SKIP |  | reduced efficacy | prevented zinc adverse effect | no significant differences | increased EB3 track length and speed | only NAP exhibited protection | protected against zinc-induced decay
